Source: patent EP4692073A1, “CYCLIC AMINE DERIVATIVE, AND COMPOSITION AND USE THEREOF” (Shanghai Jingxin Biomedical Co., Ltd., priority 2023, dated 2024)

Experiments:
Lp(a) = experiment: In vivo Lp(a) inhibition in cynomolgus monkeys; conditions: 3 mg/kg oral gavage once daily for 5 days, serum Lp(a) 8 hours after administration on Day 5
Protocol: • 1. Experimental purpose: The purpose of this test is to test the inhibitory effect of the compounds of the present invention on Lp(a) in cynomolgus monkeys • 2. Experimental instruments and reagents: Fully automatic biochemical analyzer (Hitachi 7600 model), • 3. Experimental methods: The cynomolgus monkeys were housed with a standard light cycle (12 hours light/12 hours dark), at a room temperature of 18-26°C and a relative humidity of 40-70%, with drinking water provided continuously for 24 hours, and feed was provided to the animals twice daily, in the morning (about 10:30) and in the afternoon (about 15:00). Five days prior to the study, the cynomolgus monkeys were randomly assigned to groups (n=3/group) based on their body weight and baseline serum Lp(a) concentration for the study. The administration volume was calculated according to the body weight of the animals on the first day of administration, and the administration volume was 5 mL/kg, administered once daily by oral gavage for 5 consecutive days, and the dosage was 3 mg/kg, and the solvent was 1% HEC and 0.25% Tween 80.
The adaptation period (after fasting overnight), before administration on Day 1, and 8 hours after administration on Day 5. […] The serum Lp(a) level was detected using a fully automatic biochemical analyzer. […]

TA1537 = experiment: Salmonella typhimurium reverse mutation test, TA1537; type: cell-based; parameters: key: + indicates a positive mutagenic result; - indicates a negative mutagenic result
Protocol: (§1) The revived strains or a single colony from the master plate were inoculated into the broth, and cultured in a thermostat gas bath vibrator at 100 to 120 rpm and 37±1°C for 10 to 16 hours, marked and stored for later use. The bottom agar medium (containing an appropriate amount of agar, Vogel-Bonner buffer, 20% glucose solution and 20% magnesium sulfate solution) was poured into a six-well plate, approximately 20mL-25mL into each well, and allowed to cool and solidify naturally, marked each well and stored for later use.
(§2) Three wells were set up in each group for parallel experiments. The top agar medium was sterilized under high pressure and kept warm at about […]. In each test tube, 0.1mL of negative control (DMSO) or positive control or test sample, 0.1mL of bacterial solution suspension, 0.5mL of phosphate buffer (0.2M PBS) (-S9) or 0.5mL of S9 mixed solution (+S9) and 2.5mL top culture medium were added, after vortex mixing, and then quickly and evenly spread on the culture dish which was already spreaded with the bottom agar medium. After natural cooling and solidification, the culture dish was inverted and placed in a 37°C incubator for 48 to 72 hours. After culturing for 48 to 72 hours, the culture dish was taked out, and the number of revertant colonies in each well was counted, the growth background was observed under a microscope to determine whether there was antibacterial or bactericidal activity, and the experimental results were recorded.

TA100 = experiment: Salmonella typhimurium reverse mutation test, TA100; type: cell-based; parameters: key: + indicates a positive mutagenic result; - indicates a negative mutagenic result
Protocol: as §1, §2

TA1535 = experiment: Salmonella typhimurium reverse mutation test, TA1535; type: cell-based; parameters: key: + indicates a positive mutagenic result; - indicates a negative mutagenic result
Protocol: as §1, §2

TA102 = experiment: Salmonella typhimurium reverse mutation test, TA102; type: cell-based; parameters: key: + indicates a positive mutagenic result; - indicates a negative mutagenic result
Protocol: as §1, §2

TA98 = experiment: Salmonella typhimurium reverse mutation test, TA98; type: cell-based; parameters: key: + indicates a positive mutagenic result; - indicates a negative mutagenic result
Protocol: as §1, §2

[1] = TA1537, no S9 mixture, 62µg/ dish
[2] = TA1537, no S9 mixture, 185µg/ dish
[3] = TA1537, no S9 mixture, 556µg/ dish
[4] = TA1537, no S9 mixture, 1667µg/ dish
[5] = TA1537, no S9 mixture, 5000µg/ dish
[6] = TA1537, with S9 mixture, 62µg/ dish
[7] = TA1537, with S9 mixture, 185µg/ dish
[8] = TA1537, with S9 mixture, 556µg/ dish
[9] = TA1537, with S9 mixture, 1667µg/ dish
[10] = TA1537, with S9 mixture, 5000µg/ dish
[11] = TA100, no S9 mixture, 62µg/ dish
[12] = TA100, no S9 mixture, 185µg/ dish
[13] = TA100, no S9 mixture, 556µg/ dish
[14] = TA100, no S9 mixture, 1667µg/ dish
[15] = TA100, no S9 mixture, 5000µg/ dish
[16] = TA100, with S9 mixture, 62µg/ dish
[17] = TA100, with S9 mixture, 185µg/ dish
[18] = TA100, with S9 mixture, 556µg/ dish
[19] = TA100, with S9 mixture, 1667µg/ dish
[20] = TA100, with S9 mixture, 5000µg/ dish
[21] = TA1535, no S9 mixture, 62µg/ dish
[22] = TA1535, no S9 mixture, 185µg/ dish
[23] = TA1535, no S9 mixture, 556µg/ dish
[24] = TA1535, no S9 mixture, 1667µg/ dish
[25] = TA1535, no S9 mixture, 5000µg/ dish
[26] = TA1535, with S9 mixture, 62µg/ dish
[27] = TA1535, with S9 mixture, 185µg/ dish
[28] = TA1535, with S9 mixture, 556µg/ dish
[29] = TA1535, with S9 mixture, 1667µg/ dish
[30] = TA1535, with S9 mixture, 5000µg/ dish
[31] = TA102, no S9 mixture, 62µg/ dish
[32] = TA102, no S9 mixture, 185µg/ dish
[33] = TA102, no S9 mixture, 556µg/ dish
[34] = TA102, no S9 mixture, 1667µg/ dish
[35] = TA102, no S9 mixture, 5000µg/ dish
[36] = TA102, with S9 mixture, 62µg/ dish
[37] = TA102, with S9 mixture, 185µg/ dish
[38] = TA102, with S9 mixture, 556µg/ dish
[39] = TA102, with S9 mixture, 1667µg/ dish
[40] = TA102, with S9 mixture, 5000µg/ dish
[41] = TA98, no S9 mixture, 62µg/ dish
[42] = TA98, no S9 mixture, 185µg/ dish
[43] = TA98, no S9 mixture, 556µg/ dish
[44] = TA98, no S9 mixture, 1667µg/ dish
[45] = TA98, no S9 mixture, 5000µg/ dish
[46] = TA98, with S9 mixture, 62µg/ dish
[47] = TA98, with S9 mixture, 185µg/ dish
[48] = TA98, with S9 mixture, 556µg/ dish
[49] = TA98, with S9 mixture, 1667µg/ dish
[50] = TA98, with S9 mixture, 5000µg/ dish

O=C(O)[C@@H](Cc1cccc(CN(Cc2cccc(C[C@H](C(=O)O)[C@H]3CCNC3)c2)Cc2cccc(C[C@H](C(=O)O)[C@H]3CCNC3)c2)c1)[C@H]1CCNC1 [Comparative Example 1]
Lp(a) inhibition rate (Lp(a)): 32.87±17.30% | mutagenicity (TA1537; [1]): - | mutagenicity (TA1537; [2]): - | mutagenicity (TA1537; [3]): - | mutagenicity (TA1537; [4]): - | mutagenicity (TA1537; [5]): - | mutagenicity (TA1537; [6]): - | mutagenicity (TA1537; [7]): - | mutagenicity (TA1537; [8]): - | mutagenicity (TA1537; [9]): - | mutagenicity (TA1537; [10]): - | mutagenicity (TA100; [11]): - | mutagenicity (TA100; [12]): - | mutagenicity (TA100; [13]): - | mutagenicity (TA100; [14]): - | mutagenicity (TA100; [15]): - | mutagenicity (TA100; [16]): - | mutagenicity (TA100; [17]): - | mutagenicity (TA100; [18]): - | mutagenicity (TA100; [19]): - | mutagenicity (TA100; [20]): - | mutagenicity (TA1535; [21]): - | mutagenicity (TA1535; [22]): - | mutagenicity (TA1535; [23]): - | mutagenicity (TA1535; [24]): - | mutagenicity (TA1535; [25]): - | mutagenicity (TA1535; [26]): - | mutagenicity (TA1535; [27]): - | mutagenicity (TA1535; [28]): - | mutagenicity (TA1535; [29]): - | mutagenicity (TA1535; [30]): - | mutagenicity (TA102; [31]): - | mutagenicity (TA102; [32]): - | mutagenicity (TA102; [33]): - | mutagenicity (TA102; [34]): - | mutagenicity (TA102; [35]): - | mutagenicity (TA102; [36]): - | mutagenicity (TA102; [37]): - | mutagenicity (TA102; [38]): - | mutagenicity (TA102; [39]): - | mutagenicity (TA102; [40]): - | mutagenicity (TA98; [41]): - | mutagenicity (TA98; [42]): + | mutagenicity (TA98; [43]): + | mutagenicity (TA98; [44]): + | mutagenicity (TA98; [45]): + | mutagenicity (TA98; [46]): - | mutagenicity (TA98; [47]): - | mutagenicity (TA98; [48]): + | mutagenicity (TA98; [49]): + | mutagenicity (TA98; [50]): +

O=C(O)[C@@H](Cc1cccc(CN(Cc2cccc(C[C@H](C(=O)O)[C@H]3CCNC3)c2)C(=O)c2cccc(C[C@H](C(=O)O)[C@H]3CCNC3)c2)c1)[C@H]1CCNC1 [Example 5]
Lp(a) inhibition rate (Lp(a)): 50.23±20.41% | mutagenicity (TA1537; [1]): - | mutagenicity (TA1537; [2]): - | mutagenicity (TA1537; [3]): - | mutagenicity (TA1537; [4]): - | mutagenicity (TA1537; [5]): - | mutagenicity (TA1537; [6]): - | mutagenicity (TA1537; [7]): - | mutagenicity (TA1537; [8]): - | mutagenicity (TA1537; [9]): - | mutagenicity (TA1537; [10]): - | mutagenicity (TA100; [11]): - | mutagenicity (TA100; [12]): - | mutagenicity (TA100; [13]): - | mutagenicity (TA100; [14]): - | mutagenicity (TA100; [15]): - | mutagenicity (TA100; [16]): - | mutagenicity (TA100; [17]): - | mutagenicity (TA100; [18]): - | mutagenicity (TA100; [19]): - | mutagenicity (TA100; [20]): - | mutagenicity (TA1535; [21]): - | mutagenicity (TA1535; [22]): - | mutagenicity (TA1535; [23]): - | mutagenicity (TA1535; [24]): - | mutagenicity (TA1535; [25]): - | mutagenicity (TA1535; [26]): - | mutagenicity (TA1535; [27]): - | mutagenicity (TA1535; [28]): - | mutagenicity (TA1535; [29]): - | mutagenicity (TA1535; [30]): - | mutagenicity (TA102; [31]): - | mutagenicity (TA102; [32]): - | mutagenicity (TA102; [33]): - | mutagenicity (TA102; [34]): - | mutagenicity (TA102; [35]): - | mutagenicity (TA102; [36]): - | mutagenicity (TA102; [37]): - | mutagenicity (TA102; [38]): - | mutagenicity (TA102; [39]): - | mutagenicity (TA102; [40]): - | mutagenicity (TA98; [41]): - | mutagenicity (TA98; [42]): - | mutagenicity (TA98; [43]): - | mutagenicity (TA98; [44]): - | mutagenicity (TA98; [45]): - | mutagenicity (TA98; [46]): - | mutagenicity (TA98; [47]): - | mutagenicity (TA98; [48]): - | mutagenicity (TA98; [49]): - | mutagenicity (TA98; [50]): -
